Test results reported in patent US8993604B2, “Treatment and prevention of dengue virus infections” (Siga Technologies, Inc., priority 2009, dated 2015).
Read-outs that look alike come from different tables or passages of the source.

Experiments:
[1] = system: all four serotypes of dengue; experiment: Yield assays against each of the four serotypes of dengue; assay type: cell-based, dengue virus; conditions: yield assays at several drug concentrations
Procedure: Initially, the chemical structures of the hit compounds were examined for chemical tractability. […] Hits that passed this medicinal chemistry filter were evaluated for their potency. Compound potency was determined by evaluating inhibitory activity across a broad range of concentrations. Nonlinear regression was used to generate best-fit inhibition curves and to calculate the 50% effective concentration (EC50). The selectivity or specificity of a given compound is typically expressed as a ratio of its cytotoxicity to its biological effect. A cell proliferation assay is used to calculate a 50% cytotoxicity concentration (CC50); the ratio of this value to the EC50 is referred to as the therapeutic index (T.I.=CC50/EC50). Two types of assays have been used to determine cytotoxicity, both of which are standard methods for quantitating the reductase activity produced in metabolically active cells (22). […] Verification that these compounds act against each of the four serotypes of dengue was done with yield assays carried out at several drug concentrations, and the titer determined for each.
Compounds that were active in the primary screen were tested for activity in viral yield assays. […] The EC50 was calculated through ExcelFit. Activities against other serotypes of dengue virus were determined in a similar way.

[2] = system: Dengue-2 (Strain New Guinea C); experiment: Viral yield assay in Vero cells; assay type: cell-based; conditions: Dengue virus, read-out: Activity (anti-dengue 2 viral activity, EC50 class)
How it was run: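 Virus yield, titered on Vero cells from cultures harvested at 48 h post infection, gave the EC50. Cultures were infected at MOI 0.1 with dengue-2 and treated with compound or DMSO at 37° C. DENV-1 and DENV-4 were determined similarly.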

[3] = system: dengue; conditions: cited from earlier work
[4] = system: dengue; conditions: mouse model; cited from earlier work
[5] = Vero cells, MOI 0.1, harvested 48 hours post infection

Row | Structure (SMILES) | EC50 [2, 5] | also measured
1 | COc1ccc(C(=O)Nc2ccc(-c3nc4ccc(C)cc4s3)cc2)c(OC)c1 [Compound 3, 2,4-Dimethoxy-N-[4-(6-methyl-benzothiazol-2-yl)-phenyl]-benzamide] | < 1 µM | activity against all four serotypes of dengue [1]: activity against all four serotypes of dengue
2 | COc1cccc(OC)c1C(=O)Nc1ccc(Cl)c(-c2nc3ccccc3s2)c1 [Compound 118, N-(3-Benzothiazol-2-yl-4-chloro-phenyl)-2,6-dimethoxy-benzamide] | > 25 µM | 
3 | Cc1cc(C(=O)Nc2ccc(-c3nc4ccccc4s3)c(Cl)c2)ccc1[N+](=O)[O-] [Compound 119, N-(4-Benzothiazol-2-yl-3-chloro-phenyl)-3-methyl-4-nitro-benzamide] | > 25 µM | 
4 | O=C(Nc1ccc(-c2nc3ccccc3s2)c(Cl)c1)c1cccc([N+](=O)[O-])c1 [Compound 120, N-(4-Benzothiazol-2-yl-3-chloro-phenyl)-3-nitro-benzamide] | > 25 µM | 
5 | Cc1ccc(-c2nc3ccccc3s2)cc1NC(=O)c1ccc2c(c1)OCO2 [Compound 121, Benzo[1,3]dioxole-5-carboxylic acid (5-benzothiazol-2-yl-2-methyl-phenyl)-amide] |  | EC50 ([2]; Vero, 48 h): > 25 µM
6 | Cc1cc(C)cc(C(=O)Nc2cc(-c3nc4ccccc4s3)ccc2Cl)c1 [Compound 122, N-(5-Benzothiazol-2-yl-2-chloro-phenyl)-3,5-dimethyl-benzamide] | > 25 µM | 
7 | O=C(Nc1ccc(-c2nc3ccccc3s2)c(Cl)c1)c1ccc(F)cc1 [Compound 123, N-(4-Benzothiazol-2-yl-3-chloro-phenyl)-4-fluoro-benzamide] | > 25 µM | 
8 | O=C(Nc1ccc(-c2nc3ccccc3s2)c(Cl)c1)c1ccccc1[N+](=O)[O-] [Compound 124, N-(4-Benzothiazol-2-yl-3-chloro-phenyl)-2-nitro-benzamide] | > 25 µM | 
9 | Cc1c(NC(=O)c2cc(-n3cnnc3)ccc2Cl)cccc1-c1nc2ccccc2s1 [Compound 125, N-(3-Benzothiazol-2-yl-2-methyl-phenyl)-2-chloro-5-[1,2,4]triazol-4-yl-benzamide] |  | EC50 ([2]; Vero, 48 h): > 25 µM
10 | Cc1ccc2nc(-c3ccc(NC(=O)c4ccccc4C(=O)O)cc3)sc2c1 [Compound 126, N-[4-(6-Methyl-benzothiazol-2-yl)-phenyl]-phthalamic acid] |  | EC50 ([2]; Vero, 48 h): > 25 µM
11 | NC(=O)c1ncn([C@@H]2O[C@H](CO)[C@@H](O)[C@H]2O)n1 [ribavirin] |  | adverse effects induced ([3]; animal models of refs. 14, 16, model not specified): induced anemia and thrombocytosis; protection against dengue ([3]; rhesus monkey model): did not show protection; protection against dengue [4]: did not show protection
